Source: patent US8580773B2, “Small-molecule inhibitors of the androgen receptor” (The Regents of the University of California, priority 2008, dated 2013)
“Also recorded” adds a separate entry of the source. Structures can show the parent of a compound that is named as a salt.

Legend:
LNCaP cells = assay: Cell proliferation (DNA content, DAPI) in LNCaP cells; assay type: cell-based, human; conditions: 3 nM DHT, PP 100 nM, HH 100 nM, BiC 1 μM, seven days, hydrochloride
From the text: (§1) LN-AR cells were created by retroviral infection of a high-expressing AR vector into LNCaP cells, and proliferate independent of androgen in cell culture, unlike their parental line (Chen, C. D., et al., Molecular determinants of resistance to antiandrogen therapy. Nat Med, 2004. 10(1): p. 33-9). HEK293 cells were used as a control. Cells were transferred to charcoal-stripped media two days before they were split and plated in quadruplicate at a density of approximately 20,000 cells/well in 48-well plates. […] Media were changed every day, using a single preparation to ensure consistent compound concentrations. Proliferation was determined by measuring the DNA content of the cells in each well. Each day, the cells in four wells were fixed in 100% cold methanol, followed by staining for 5 min at RT with 0.2 ng/mL 4′,6-diamidino-2-phenylindole (DAPI) in PBS. The cells were washed once in PBS, then read on a fluorescence plate reader using 365/439 excitation/emission wavelengths. LAPC4 and LNCaP cells proliferated to a much greater degree in the presence of DHT, while LN-AR cells proliferated in the presence and absence of DHT.

AR = molecular target: T1, AR (Homo sapiens, UniProt P10275, T878A); assay: DHT titration against inhibitor, PSA-luciferase reporter in LNCaP cells (competitive vs non-competitive); assay type: cell-based; conditions: moderate dose of inhibitor, DHT titrated, hydrochloride
T1 construct: that each express endogenous AR; endogenous in cells; host or cells: LNCaP

human androgen receptor = molecular target: T2, human androgen receptor (Homo sapiens, UniProt P10275); assay: Screen of 1040 FDA-approved drugs and natural products for AR antagonists (MMTV-luciferase transcription assay and C-AR-Y FRET conformation assays); assay type: cell-based; conditions: test compounds at 10 μM, 10 nM DHT, 24 hours; validated by dose-response
T2 construct: expressed in transfected cells; host or cells: HEK293 and LAPC4 stably expressing C-AR-Y; HEK293 transiently transfected with native AR
T2 sequence (P10275 1-920): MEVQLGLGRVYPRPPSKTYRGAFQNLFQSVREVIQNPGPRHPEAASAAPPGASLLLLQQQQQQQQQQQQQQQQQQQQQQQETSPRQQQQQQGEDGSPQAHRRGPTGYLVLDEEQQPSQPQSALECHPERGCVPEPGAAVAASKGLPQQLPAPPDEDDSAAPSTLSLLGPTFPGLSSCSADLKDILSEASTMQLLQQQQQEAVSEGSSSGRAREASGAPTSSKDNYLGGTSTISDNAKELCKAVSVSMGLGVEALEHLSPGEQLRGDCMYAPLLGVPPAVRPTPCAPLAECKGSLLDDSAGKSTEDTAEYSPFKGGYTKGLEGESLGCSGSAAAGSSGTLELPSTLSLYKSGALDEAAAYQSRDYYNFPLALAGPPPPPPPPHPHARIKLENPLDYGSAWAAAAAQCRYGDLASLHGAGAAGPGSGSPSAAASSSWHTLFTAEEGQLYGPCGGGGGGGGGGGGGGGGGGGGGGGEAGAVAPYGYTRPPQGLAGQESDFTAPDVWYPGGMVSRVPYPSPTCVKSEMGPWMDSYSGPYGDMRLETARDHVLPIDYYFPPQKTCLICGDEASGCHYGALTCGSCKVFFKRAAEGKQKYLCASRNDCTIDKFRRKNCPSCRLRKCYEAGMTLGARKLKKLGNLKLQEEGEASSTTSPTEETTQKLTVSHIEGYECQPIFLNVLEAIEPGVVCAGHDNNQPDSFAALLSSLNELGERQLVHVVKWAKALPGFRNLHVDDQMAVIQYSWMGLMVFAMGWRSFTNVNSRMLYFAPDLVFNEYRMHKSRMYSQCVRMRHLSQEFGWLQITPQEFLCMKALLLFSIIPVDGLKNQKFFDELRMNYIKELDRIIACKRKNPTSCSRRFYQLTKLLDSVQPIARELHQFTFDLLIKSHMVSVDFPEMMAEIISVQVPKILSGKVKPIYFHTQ
Method: A library assembled by the NINDS was screened. The library consisted of 1040 FDA-approved drugs and natural products. A basic strategy to select and compare compounds from each of the primary screens was established (FIG. 1).
The transcription assay was conducted by transfecting 10 cm plates of HEK293 cells with plasmids encoding MMTV-luciferase, SV40-renilla luciferase, and native AR. […] FRET is fluorescence resonance energy transfer between cyan and yellow fluorescent protein derivatives (CFP, YFP) that are fused to the amino and carboxyl termini of the human androgen receptor. When ligand activates the receptor, a conformational change takes place that brings the CFP and YFP into close proximity, thereby allowing FRET to occur. This spectroscopic change is detected using a fluorescence plate reader.
For the transcription assay, transfected cells were pooled before being plated into 96-well dishes with the test compounds at 10 μM. […] Cell and compound transfers were accomplished with a liquid handling robot. Cells were cultured for 24 hours in the presence of 10 nM DHT and the test compounds. After 24 hours, cells were either lysed by freeze-thaw (transcription assay), or fixed in 4% paraformaldehyde for reading on the FPR (FRET assays). Each compound was tested in duplicate in the initial screen.
The compounds were sorted on the basis of anti-androgen effects. […] This eliminated situations in which one test gave a strong response, and the replicate had none. […] For the FRET assays, toxic compounds were easily detected because of their effect on raw CFP and YFP signal, and compounds that reduced this signal below two standard deviations were eliminated.
The top 50 compounds identified in each primary assay were then tested in the other two assays.

HEK293 cells = assay: Cell proliferation (DNA content, DAPI) in control HEK293 cells; assay type: cell-based; conditions: PP 100 nM, HH 100 nM, BiC 1 μM
From the text: as §1

T1 sequence (P10275 whole entry T878A): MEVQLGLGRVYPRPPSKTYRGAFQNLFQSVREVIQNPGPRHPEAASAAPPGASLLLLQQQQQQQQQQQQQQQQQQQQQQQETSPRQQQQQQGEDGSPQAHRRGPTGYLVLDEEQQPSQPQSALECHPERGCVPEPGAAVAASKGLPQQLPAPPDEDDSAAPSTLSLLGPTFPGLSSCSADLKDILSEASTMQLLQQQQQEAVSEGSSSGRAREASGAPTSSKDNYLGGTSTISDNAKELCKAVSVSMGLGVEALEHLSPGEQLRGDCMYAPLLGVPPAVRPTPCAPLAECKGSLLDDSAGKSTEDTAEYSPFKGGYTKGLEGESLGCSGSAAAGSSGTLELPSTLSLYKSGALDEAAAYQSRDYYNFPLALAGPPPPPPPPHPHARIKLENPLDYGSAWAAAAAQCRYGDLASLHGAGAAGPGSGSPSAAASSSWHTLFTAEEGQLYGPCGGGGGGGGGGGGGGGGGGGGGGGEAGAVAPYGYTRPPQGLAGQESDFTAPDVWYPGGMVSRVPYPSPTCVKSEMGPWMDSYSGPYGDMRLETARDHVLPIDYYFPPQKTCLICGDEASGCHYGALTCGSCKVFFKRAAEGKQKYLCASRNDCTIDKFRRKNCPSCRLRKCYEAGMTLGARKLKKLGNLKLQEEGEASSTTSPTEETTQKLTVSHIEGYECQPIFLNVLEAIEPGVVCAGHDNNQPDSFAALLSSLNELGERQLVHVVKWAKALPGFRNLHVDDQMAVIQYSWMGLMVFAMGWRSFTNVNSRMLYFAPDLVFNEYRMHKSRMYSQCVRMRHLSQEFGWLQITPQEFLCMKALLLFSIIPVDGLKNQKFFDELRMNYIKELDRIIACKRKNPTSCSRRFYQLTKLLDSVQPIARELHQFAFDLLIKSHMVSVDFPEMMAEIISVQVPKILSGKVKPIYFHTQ

For `Cc1nccc2c1[nH]c1cc(O)ccc12` [HH, harmol hydrochloride], the “Inhibition of cell growth” value (LNCaP cells) was “inhibited significantly; also recorded: growth-inhibitory properties”, the “Mode of antagonism on DHT titration” value (AR) was “inhibited maximal DHT-induced activation; also recorded: consistent with a non-competitive antagonist” and the “Anti-androgen activity in screen” value (human androgen receptor) was “previously unrecognized anti-androgen activity”. For the same compound, the Non-specific growth inhibition (HEK293 cells) was “Neither compound exhibited non-specific growth inhibition”.
